Data published in publication PMC11729419, “Thiol-Reactive or Redox-Active: Revising a Repurposing Screen Led to a New Invalidation Pipeline and Identified a True Noncovalent Inhibitor Against Papain-like Protease from SARS-CoV-2” (ACS Pharmacology & Translational Science, 2024).
Structures can show the parent of a compound that is named as a salt. Where two headings read alike, the source gives them in different places.

Biological target: SARS-CoV-2 PLpro-NAB (Severe acute respiratory syndrome coronavirus 2, UniProt P0DTD1)
Assay: biochemical
[1] = Table S1, 20 µM, DTT buffer, average (SD)
[2] = Table S1, 20 µM, L-cysteine buffer, average (SD)
[3] = Table S1, DTT buffer, read-out: HP PLpro-NAB SARS-CoV-2 IC50 [µM] triplicates DTT BUFFER
[4] = Table S1, L-cysteine buffer, read-out: HP PLpro-NAB SARS-CoV-2 IC50 [µM] duplicates L-CYS BUFFER
[5] = Table S1, 20 µM, DTT buffer, average (SD), read-out: HC PLpro-NAB SARS-CoV-2 inhibition [%] 20 µM triplicates DTT BUFFER
[6] = Table S1, 20 µM, L-cysteine buffer, average (SD), read-out: HP PLpro-NAB SARS-CoV-2 inhibition [%] 20 µM triplicates L-CYS BUFFER

Compound	HC PLpro-NAB SARS-CoV-2 inhibition [%] 20 µM triplicates DTT BUFFER [1]	HP PLpro-NAB SARS-CoV-2 inhibition [%] 20 µM triplicates L-CYS BUFFER [2]	IC50 [3]	IC50 [4]	further results
C[n+]1c2cc(N)ccc2cc2ccc(N)cc21.[Cl-] [Acriflavinium Hydrochloride]	27.57 (6.10) %	-99.55 (4.20) %	12.4 µM	> 20 µM	–
Cc1cc(-c2ccc(/N=N/c3ccc4c(S(=O)(=O)O)cc(S(=O)(=O)O)c(N)c4c3O)c(C)c2)ccc1/N=N/c1ccc2c(S(=O)(=O)O)cc(S(=O)(=O)O)c(N)c2c1O [Evans Blue]	–	–	8.68 µM	> 20 µM	inhibition at 20 µM [5]: 126%; inhibition at 20 µM [6]: -67.8%
CN(C)CCNc1nc2cc(O)ccc2c2c1C(=O)c1ccccc1-2.Cl.Cl [TAS-103 (dihydrochloride)]	154.91 (1.47) %	17.75 (9.12) %	5.94 µM	> 20 µM	–
CC1(C)CCC2=C(O1)c1ccccc1C(=O)C2=O [Beta-Lapachone]	–	–	4.71 µM	> 20 µM	inhibition at 20 µM [5]: 175%; inhibition at 20 µM [6]: -37.4%
CC(C)Nc1cccnc1N1CCN(C(=O)c2cc3cc(NS(C)(=O)=O)ccc3[nH]2)CC1 [Delavirdine (mesylate), Delavirdine]	–	–	–	–	IC50 (HP PLpro-NAB SARS-CoV-2 IC50 [µM] duplicates L-CYS BUFFER): > 20 µM; IC50 (HP PLpro-NAB SARS-CoV-2 IC50 [µM] triplicates DTT BUFFER): > 20 µM
Cc1nc2c(=O)n(C)c(=O)nc-2n(C)n1 [3-Methyl Toxoflavin]	181.38 (6.76) %	-26.71 (3.86) %	0.074 µM	> 20 µM	–
O=c1c(O)cccc2cc(O)c(O)c(O)c12 [purpurogallin]	–	–	–	–	IC50 (HP PLpro-NAB IC50 [μM] duplicates 1 mM L-cys buffer, hit profiling, 1 mM L-cys buffer): 1.03 µM; IC50 (HP PLpro-NAB IC50 [μM] triplicates 1 mM DTT buffer, hit profiling, 1 mM DTT buffer): > 20 µM
O=C1C=CC(=O)c2c(O)cccc21 [Juglone]	–	–	> 20 µM	> 20 µM	inhibition at 20 µM [5]: 83.7%; inhibition at 20 µM [6]: -14.8%
Cc1cc(-c2ccc(/C=C3/SC(=Nc4ccc(Cl)c(C(=O)O)c4)NC3=O)o2)c([N+](=O)[O-])cc1C [PT 1]	87.07 (2.59) %	-36.09 (5.10) %	9.32 µM	> 20 µM	–
SF1670	183.62 (4.27) %	-32.73 (4.18) %	0.25 µM	> 20 µM	–
Bacitracin [Bacitracin (Zinc)]	67.28 (8.42) %	6.99 (8.69) %	10.2 µM	> 20 µM	–
COc1cccc2c(NCc3ccccc3)nc(-n3c(N)nc4ccccc43)nc12 [ML240]	93.76 (13.43) %	-11.93 (4.14) %	> 20 µM	> 20 µM	–
Oc1c(Cl)cc(Cl)c(Cl)c1Cc1c(O)c(Cl)cc(Cl)c1Cl [Hexachlorophene]	–	–	–	–	IC50 (HP PLpro-NAB SARS-CoV-2 IC50 [µM] duplicates L-CYS BUFFER, Table S1, L-cysteine buffer): > 20 µM; IC50 (HP PLpro-NAB SARS-CoV-2 IC50 [µM] triplicates DTT BUFFER, Table S1, DTT buffer): > 20 µM; inhibition at 20 µM (read-out: HC PLpro-NAB SARS-CoV-2 inhibition [%] 20 µM triplicates DTT BUFFER): 109%; inhibition at 20 µM (read-out: HP PLpro-NAB SARS-CoV-2 inhibition [%] 20 µM triplicates L-CYS BUFFER): -18.3%
Chicago-Sky-Blue-6b	51.02 (1.78) %	3.64 (5.37) %	> 20 µM	> 20 µM	–
O=C(Nc1ccccc1-c1cn2c(CN3CCNCC3)csc2n1)c1cnc2ccccc2n1 [SRT 1720]	–	–	–	–	Inhibitory activity on retest in 1 mM L-cysteine (50% inhibition at 20 μM, 1 mM L-cysteine): retained their inhibitory activity; HC PLpro-NAB inhibition [%] 20 μM triplicates 1 mM DTT buffer (hit confirmation, 20 μM, 1 mM DTT buffer, average (SD), 20 μM PR619 = 100%, DMSO = 0%): 109.60 (16.57) %; HP PLpro-NAB inhibition [%] 20 μM triplicates 1 mM L-cys buffer (hit profiling, 20 μM, 1 mM L-cys buffer, average (SD), 20 μM PR619 = 100%): 169.11 (0.11) %; IC50 (read-out: HP PLpro-NAB IC50 [μM] duplicates 1 mM L-cys buffer, hit profiling, 1 mM L-cys buffer): 0.82 µM; IC50 (read-out: HP PLpro-NAB IC50 [μM] triplicates 1 mM DTT buffer, hit profiling, 1 mM DTT buffer): > 20 µM
CC[n+]1c(-c2ccccc2)c2cc(N)ccc2c2ccc(N)cc21 [Homidium Bromide]	–	–	13.7 µM	> 20 µM	inhibition at 20 µM [5]: 149%; inhibition at 20 µM [6]: 18.3%
O=c1ccc2[n+]([O-])c3ccc(O)cc3oc-2c1 [Resazurin (sodium salt), Resazurin]	–	–	> 20 µM	> 20 µM	–
